In US20150045387A1, “Bi-Aromatic And Tri-Aromatic Compounds As NADPH Oxidase 2 (Nox2) Inhibitors” (The University of Surrey, priority 2011, published 2015):

Columns and labels:
HPMEC = test: NADPH-dependent O2.- production by homogenates of TNFα-stimulated HPMEC, lucigenin-chemiluminescence; format: cell-based, human; details: HPMEC stimulated with TNFα 100 U/ml 45 min, homogenates 0.1 mg/well, NADPH 100 μM
Description: (§1) A) Differentiate human neutrophils (HL-60 cells, 5×10^4 cells/well) were stimulated with PMA (100 ng/ml) for 5 min in the presence or absence of LMH036 at the dose indicated. O2.^− production was measured by lucigenin-chemiluminescence. B) HPMEC were stimulated with TNFα (100 U/ml) for 45 min. Cells were immediately frozen in liquid nitrogen and homogenised. Cell homogenates (0.1 mg/well) were pre-incubated with LMH036 at the indicated dose for 5 min and measured for the O2.^− production in the presence of NADPH (100 μM) by lucigenin-chemiluminescence.
(§2) O2^− production by different cell types was measured using lucigenin (5 μM)-chemiluminescence. A microplate luminometer (LumiStar, BMG) was used, which allows the examination of 96 samples at the same time with kinetic reading facilities. […] Dark-adapted lucigenin (5 μM) was added into the well through an auto-dispenser located in the dark chamber just before reading. The light emission was recorded over a 60 minute period and expressed as arbitrary MLU measured by the illuminometer. Each experiment was performed in triplicate and the mean of 3 blank readings was subtracted from each corrected value for each reading. […]
O2^− production was also studied using total cell homogenate (for the endothelial cells and the fibroblasts). […] Soluble protein concentration was determined using a kit from Bio-Rad Laboratories Ltd. (Hertfordshire, U.K.). […]

[1] = tested on: Differentiate human neutrophils (HL-60 cells); test: PMA-stimulated O2.- production by differentiated human neutrophils, lucigenin-chemiluminescence; format: cell-based; details: HL-60 neutrophils, PMA 100 ng/ml for 5 min
Description: as §1
HL-60 is a human promyelocytic leukaemia cell line. […]
as §2

Structure (SMILES): OCc1cc(-c2ncc(-c3cccc(O)c3O)o2)ccc1O [LMH036, 3-(2-(4-hydroxy-3-(hydroxymethyl)phenyl)oxazol-5-yl)benzene-1,2-diol]
- O2.- production by human cells (HPMEC): inhibitory effect
- O2.- production by human cells [1]: inhibitory effect
